Consider 63 substances from patent US12060400B2, “Peptides for use in immunotherapy against cancers” (Immatics Biotechnologies GmbH, priority 2018, dated 2024).

This test has as its system HLA-A*24. Kind of test: MHC binding assay: UV-ligand exchange with beta2m ELISA (peptide exchange yield). More on the design: species or system human. Particulars: Table 11, binding to HLA-A*24, UV-ligand exchange. In short, it runs like this: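 Peptide-MHC complexes generated by UV-induced exchange of a photocleavable ligand with the test peptide; exchange yield quantified by streptavidin-capture ELISA detecting β2m (HRP anti-β2m, TMB, A450). Samples diluted 100-fold, with refolded HLA-A*02:01/MLA-001 monomers (15-500 ng/ml) as standards.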

Regarding “333 (RYADLLIYTY; listed as Homo sapiens) [compound 333]”, the “Peptide exchange (MHC class I binding score, peptide exchange yield)” value (“Peptide exchange” below) is “++++ (>75% = ++++)”.
With “178 (AYPQIRCTW; listed as Homo sapiens) [compound 178]” the entry was “++++ (>75% = ++++)”; with “371 (FRSWAVQTF; listed as Homo sapiens) [compound 371]”, “++ (>20% = ++)”.
With “104 (GYGLTRVQPF; listed as Homo sapiens) [compound 104]” the entry was “++ (>20% = ++)”; with “138 (MMVTVVALF; listed as Homo sapiens) [compound 138]”, “+++ (>50 = +++)”; with “356 (YSLEHLTQF; listed as Homo sapiens) [compound 356]”, “++ (>20% = ++)”.
With “27 (LSCTATPLF; listed as Homo sapiens) [compound 27]” the entry was “+++ (>50 = +++)”; with “241 (QKYYITGEAEGF; listed as Homo sapiens) [compound 241]”, “++++ (>75% = ++++)”.
With “133 (FFYVTETTF; listed as Homo sapiens) [compound 133]”, the “Peptide exchange” value is reported as “++++ (>75% = ++++)”.
With “162 (YYIGIVEEY; listed as Homo sapiens) [compound 162]” the entry was “+++ (>50 = +++)”.
With “50 (RYFDENIQKF; listed as Homo sapiens) [compound 50]” the entry was “++++ (>75% = ++++)”.
With “174 (TYGEEMPEEI; listed as Homo sapiens) [compound 174]” the entry was “++ (>20% = ++)”; with “36 (VYLASVAAF; listed as Homo sapiens) [compound 36]”, “++++ (>75% = ++++)”.
For the substance “119 (VWSCEGCKAF; listed as Homo sapiens) [compound 119]”, the “Peptide exchange” value was “++ (>20% = ++)”.
For “69 (KWFDSHIPRW; listed as Homo sapiens) [compound 69]”, the “Peptide exchange” value is on record as “++++ (>75% = ++++)”.
With “163 (YYIGIVEEYW; listed as Homo sapiens) [compound 163]” the entry was “++++ (>75% = ++++)”; with “157 (SIYPHGVTF; listed as Homo sapiens) [compound 157]”, “++ (>20% = ++)”.
With “158 (SYLKDPMIV; listed as Homo sapiens) [compound 158]” the entry was “+++ (>50 = +++)”; with “300 (LFALPDFIF; listed as Homo sapiens) [compound 300]”, “++ (>20% = ++)”.
With “382 (SYPKELMKF; listed as Homo sapiens) [compound 382]” the entry was “++++ (>75% = ++++)”; with “134 (IYSSQLPSF; listed as Homo sapiens) [compound 134]”, “++++ (>75% = ++++)”.
“352 (NAFEAPLTF; listed as Homo sapiens) [compound 352]”: the “Peptide exchange” value was “+++ (>50 = +++)”.
With “152 (MHPGVLAAFLF; listed as Homo sapiens) [compound 152]” the entry was “+++ (>50 = +++)”; with “53 (LFQRVSSVSF; listed as Homo sapiens) [compound 53]”, “+++ (>50 = +++)”; with “311 (IQNAILHLF; listed as Homo sapiens) [compound 311]”, “++++ (>75% = ++++)”.
With “148 (MLPQIPFLLL; listed as Homo sapiens) [compound 148]” the entry was “++ (>20% = ++)”.
With “35 (FSSTLVSLF; listed as Homo sapiens) [compound 35]” the entry was “++ (>20% = ++)”.
Regarding “339 (KQVIGIHTF; listed as Homo sapiens) [compound 339]”, the “Peptide exchange” value is “+ (>10% = +)”.
With “83 (VLQGEFFLF; listed as Homo sapiens) [compound 83]” the entry was “++++ (>75% = ++++)”; with “344 (YAYATVLTF; listed as Homo sapiens) [compound 344]”, “++ (>20% = ++)”.
With “100 (KVWSDVTPLTF; listed as Homo sapiens) [compound 100]” the entry was “+++ (>50 = +++)”; with “216 (RHYHSIEVF; listed as Homo sapiens) [compound 216]”, “++ (>20% = ++)”; with “372 (LYHNWRHAF; listed as Homo sapiens) [compound 372]”, “++++ (>75% = ++++)”.
With “70 (RYTGQWSEW; listed as Homo sapiens) [compound 70]” the entry was “++++ (>75% = ++++)”; with “145 (MYTIVTPML; listed as Homo sapiens) [compound 145]”, “++++ (>75% = ++++)”.
In the case of “318 (VQADAKLLF; listed as Homo sapiens) [compound 318]”, the “Peptide exchange” value was “+ (>10% = +)”.
With “285 (YFLPGPHYF; listed as Homo sapiens) [compound 285]” the entry was “++++ (>75% = ++++)”.
With “376 (KYVGEVFNI; listed as Homo sapiens) [compound 376]” the entry was “++++ (>75% = ++++)”; with “14 (YYIATMALI; listed as Homo sapiens) [compound 14]”, “++++ (>75% = ++++)”.
For the substance “129 (IYVSLAHVL; listed as Homo sapiens) [compound 129]”, the “Peptide exchange” value is reported as “++++ (>75% = ++++)”.
With “96 (SHIGVVLAF; listed as Homo sapiens) [compound 96]” the entry was “++ (>20% = ++)”; with “101 (VYAVSSDRF; listed as Homo sapiens) [compound 101]”, “++++ (>75% = ++++)”.
With “358 (IYANVTEMLL; listed as Homo sapiens) [compound 358]” the entry was “++++ (>75% = ++++)”; with “106 (LYAFLGSHF; listed as Homo sapiens) [compound 106]”, “++++ (>75% = ++++)”.
With “171 (LYTVPFNLI; listed as Homo sapiens) [compound 171]” the entry was “++++ (>75% = ++++)”; with “214 (YIPMSVMLF; listed as Homo sapiens) [compound 214]”, “+++ (>50 = +++)”; with “203 (VYPSESTVM; listed as Homo sapiens) [compound 203]”, “++ (>20% = ++)”.
Consider “264 (AYAIPSASLSW; listed as Homo sapiens) [compound 264]”, for which the “Peptide exchange” value is given as “++ (>20% = ++)”.
With “24 (KMLPEASLLI; listed as Homo sapiens) [compound 24]”, the “Peptide exchange” value was “++ (>20% = ++)”.
With “128 (AFQNVISSF; listed as Homo sapiens) [compound 128]” the entry was “++++ (>75% = ++++)”.
With “198 (VLAPVSGQF; listed as Homo sapiens) [compound 198]” the entry was “+++ (>50 = +++)”; with “225 (ISMSATEFLL; listed as Homo sapiens) [compound 225]”, “+++ (>50 = +++)”; with “189 (FYPDEDDFYF; listed as Homo sapiens) [compound 189]”, “+++ (>50 = +++)”.
With “334 (KVFGSFLTL; listed as Homo sapiens) [compound 334]” the entry was “++ (>20% = ++)”; with “205 (ISWEVVHTVF; listed as Homo sapiens) [compound 205]”, “++++ (>75% = ++++)”; with “263 (AYVTEFVSL; listed as Homo sapiens) [compound 263]”, “++++ (>75% = ++++)”.
Take “223 (KLRALSILF; listed as Homo sapiens) [compound 223]”: the “Peptide exchange” value is given as “+ (>10% = +)”.
With “153 (AWSPPATLF; listed as Homo sapiens) [compound 153]” the entry was “++++ (>75% = ++++)”; with “75 (VYEHNHVSL; listed as Homo sapiens) [compound 75]”, “+++ (>50 = +++)”.
With “288 (MGKGSISFLF; listed as Homo sapiens) [compound 288]” the entry was “++ (>20% = ++)”; with “362 (NYMDTDNLMF; listed as Homo sapiens) [compound 362]”, “++++ (>75% = ++++)”; with “60 (RYSPVKDAW; listed as Homo sapiens) [compound 60]”, “++++ (>75% = ++++)”.
With “308 (AAFISVPLLI; listed as Homo sapiens) [compound 308]” the entry was “++++ (>75% = ++++)”.
